According to the supplement of paper PMC10949913:

Assays:
Conditions in all cases: 48 h
NCI-H295R [1] = assay: AC50 viability; higher = less potent
Summary of the method: (§1)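 After 48 h of treatment with 23 nL of each library compound at 11 concentrations, three adrenocortical carcinoma cell lines in 1,536-well plates (500–1,000 cells/well, 5 µL medium) were given CellTiter-Glo for 15 minutes at room temperature. Luminescence was then read and normalised per plate to vehicle and empty-well controls. AC50 and area under the curve were drawn from fitted concentration-response curves of inhibitory or non-responding classes only.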

CU-ACC1 [2] = assay: AC50 viability; higher = less potent
Summary of the method: as §1

CU-ACC2 [3] = assay: AC50 viability; higher = less potent
Summary of the method: as §1

NCI-H295R [4] = assay: area under concentration-response curve (viability) (AUC (a.u.)); higher = less active
Summary of the method: as §1

CU-ACC1 [5] = assay: as above
Summary of the method: as §1

CU-ACC2 [6] = assay: as above
Summary of the method: as §1

| Compound | AC50 viability (NCI-H295R [1]) | AC50 viability (CU-ACC1 [2]) | AC50 viability (CU-ACC2 [3]) | area under concentration-response curve (NCI-H295R [4]) | area under concentration-response curve (CU-ACC1 [5]) | area under concentration-response curve (CU-ACC2 [6]) |
| --- | --- | --- | --- | --- | --- | --- |
| COc1cc(C)c(Sc2cnc(NC(=O)c3ccc(CNC(C)C(C)(C)C)cc3)s2)cc1C(=O)N1CCN(C(C)=O)CC1 (stereo unspecified) | 9.34 µM | 18.6 µM | 16.6 µM | 354 | 440 | 443 |
| COc1cc(CCc2cc(NC(=O)c3ccc(N4C[C@@H](C)N[C@@H](C)C4)cc3)n[nH]2)cc(OC)c1 | 9.34 µM | 10.5 µM | 11.8 µM | 477 | 445 | 522 |
| CCCCc1nc2cc(/C=C/C(=O)NO)ccc2n1CCN(CC)CC | 1.48 µM | 1.66 µM | 5.9 µM | 453 | 416 | 405 |
| CNC1CCC(N(Cc2cccc(-c3ccncc3)c2)C(=O)c2sc3ccccc3c2Cl)CC1 (stereo unspecified) | 9.34 µM | 10.5 µM | 7.42 µM | 425 | 406 | 448 |
| COc1cc2c(Nc3ccc(Cl)c(Cl)c3F)ncnc2cc1OC[C@@H]1C[C@@H]2CN(C)C[C@@H]2C1 | 16.6 µM | 16.6 µM | 10.5 µM | 483 | 397 | 515 |
| Cc1cc(Cl)ccc1OCCCC(=O)NO | 20.9 µM | 20.9 µM | 18.6 µM | 495 | 442 | 512 |
| Cc1c[nH]c2nc(Nc3ccc(N4CCN(C)CC4)c(F)c3)nc(-c3cccc(CC#N)c3)c12 | 5.25 µM | 6.61 µM | 4.17 µM | 472 | 457 | 422 |
| COc1cc2ncnc(Nc3ccc(F)c(Cl)c3)c2cc1NC(=O)/C=C/CN1CCCCC1 | 6.61 µM | 10.5 µM | 8.33 µM | 459 | 414 | 493 |
| CNC(=O)c1ccc(Nc2ncc(C(F)(F)F)c(NCc3nccnc3N(C)[S+](C)(=O)[O-])n2)cc1 | 3.32 µM | 3.32 µM | 1.86 µM | 353 | 354 | 336 |
| Cn1ncc(Cl)c1-c1cc(C(=O)NC(CN)Cc2ccc(F)c(F)c2)oc1Cl (stereo unspecified) | 5.9 µM | 6.61 µM | 16.6 µM | 403 | 393 | 422 |
| O=C(Nc1ccnc(NC(=O)C2CC2)c1)c1c(Cl)cccc1Cl | 18.6 µM | 9.34 µM | 4.17 µM | 479 | 390 | 463 |
| Nc1ccccc1NC(=O)c1ccc(CNC(=O)OCc2cccnc2)cc1 | 3.72 µM | 3.72 µM | 14.8 µM | 440 | 422 | 523 |
| COC(C)(C)CCn1nc(Nc2c(C)cccc2C)c2cnc(Nc3ccc(OCCN4CCCC4)c(F)c3)nc21 | 11.8 µM | 14.8 µM | 14.8 µM | 513 | 506 | 467 |
| C=C1/C(=C\C=C2/CCC[C@]3(C)[C@@H]([C@H](C)/C=C/[C@H](C)C(C)C)CC[C@@H]23)C[C@@H](O)C[C@@H]1O | 7.42 µM | 6.61 µM | 7.42 µM | 372 | 381 | 400 |
| CN1CC[C@H]([C@@H](O)C1)C2=C(O)C=C(O)C3=C2O\C(=C/C3=O)C4=CC=CC=C4Cl | 1.32 µM | 0.833 µM | 0.417 µM | 352 | 346 | 392 |
| CC(=O)c1ccc2c(c1)c1cc(C(C)=O)ccc1n2CCNC(C)C | 2.35 µM | 2.09 µM | 2.95 µM | 421 | 405 | 415 |
| Cn1cc(-c2ccc([S+](=O)([O-])n3ccc(/C=C/C(=O)Nc4ccccc4N)c3)cc2)cn1 | 5.25 µM | 13.2 µM | 9.34 µM | 352 | 377 | 464 |
| C[C@H](NC(=O)/C(C#N)=C/c1cccc(Br)n1)c1ccccc1 | 23.5 µM | 20.9 µM | 23.5 µM | 442 | 444 | 526 |
| Cc1nc(NC(=O)N2CCC[C@H]2C(N)=O)sc1-c1ccnc(C(C)(C)C(F)(F)F)c1 | 18.6 µM | 8.33 µM | 9.34 µM | 421 | 439 | 457 |
| O=C(/C=C/c1ccc(CN(CCO)CCc2c[nH]c3ccccc23)cc1)NO | 1.66 µM | 0.332 µM | 0.59 µM | 380 | 293 | 345 |
| CC(C)[C@@H](N(CCCN)C(=O)C1=CC=C(C)C=C1)C/2=N/C3=CC(=CC=C3C(=O)N2CC4=CC=CC=C4)Cl | 5.9 µM | 20.9 µM | 26.3 µM | 410 | 440 | 567 |
